Values of other authors as cited in PubChem BioAssay AID1259409 (Chemical Carcinogenesis Research Information System (CCRIS), 2018).
Values joined by “and” are separate entries in the source; they are usually repeats but may differ in a detail not shown here. Identical values can stand only once.

System: rodent chemically induced tumor inhibition, incidence and multiplicity
Experiment: CCRIS tumor inhibitor studies

For `C=C1/C(=C\C=C2/CCC[C@]3(C)[C@@H]([C@H](C)CCCC(C)(C)O)CC[C@@H]23)C[C@@H](O)C[C@@H]1O`, the “tumour outcome (control, treated, inhibition, significance)” value (Carcinogen: 7,12-DIMETHYLBENZ[A]ANTHRACENE, 57-97-6, Dose [Inhibitor]: 0.125 NMOL 2/WK STARTING 1 WK AFTER CARCINOGEN TREATMENT AND CONTINUING FOR 9 WK (STUDY DURATION: 10 WK), Route [Inhibitor]: DERMAL, Species: MOUSE, Strain/Sex: CD-1/FEMALE, Target Tissue: Type of Lesion: SKIN: PAPILLOMA, Dose [Carcinogen]: 20 NMOL ONCE, Promoter: 12-O-TETRADECANOYLPHORBOL-13-ACETATE, 16561-29-8) is listed as 77%, 37%, 52%, p<0.05, the “tumour outcome (control, treated, inhibition, significance)” value (Carcinogen: 7,12-DIMETHYLBENZ[A]ANTHRACENE, 57-97-6, Dose [Inhibitor]: 0.125 NMOL 2/WK STARTING 1 WK AFTER CARCINOGEN TREATMENT AND CONTINUING FOR 12 WK (STUDY DURATION: 13 WK), Route [Inhibitor]: DERMAL, Species: MOUSE, Strain/Sex: CD-1/FEMALE, Target Tissue: Type of Lesion: SKIN: PAPILLOMA, Dose [Carcinogen]: 20 NMOL ONCE, Promoter: 12-O-TETRADECANOYLPHORBOL-13-ACETATE, 16561-29-8) is listed as 96%, 70%, 27%, p<0.05 and the “tumour outcome (control, treated, inhibition, significance)” value (Carcinogen: 7,12-DIMETHYLBENZ[A]ANTHRACENE, 57-97-6, Dose [Inhibitor]: 0.25 NMOL 2/WK STARTING 1 WK AFTER CARCINOGEN TREATMENT AND CONTINUING FOR 9 WK (STUDY DURATION: 10 WK), Route [Inhibitor]: DERMAL, Species: MOUSE, Strain/Sex: CD-1/FEMALE, Target Tissue: Type of Lesion: SKIN: PAPILLOMA, Dose [Carcinogen]: 20 NMOL ONCE, Promoter: 12-O-TETRADECANOYLPHORBOL-13-ACETATE, 16561-29-8) is listed as 77%, 33%, 57%, p<0.05. The “tumour outcome (control, treated, inhibition, significance)” value (Carcinogen: 7,12-DIMETHYLBENZ[A]ANTHRACENE, 57-97-6, Dose [Inhibitor]: 0.25 NMOL 2/WK STARTING 1 WK AFTER CARCINOGEN TREATMENT AND CONTINUING FOR 12 WK (STUDY DURATION: 13 WK), Route [Inhibitor]: DERMAL, Species: MOUSE, Strain/Sex: CD-1/FEMALE, Target Tissue: Type of Lesion: SKIN: PAPILLOMA, Dose [Carcinogen]: 20 NMOL ONCE, Promoter: 12-O-TETRADECANOYLPHORBOL-13-ACETATE, 16561-29-8) was 96%, 70%, 27%, p<0.05, the “tumour outcome (control, treated, inhibition, significance)” value (Carcinogen: 7,12-DIMETHYLBENZ[A]ANTHRACENE, 57-97-6, Dose [Inhibitor]: 0.5 NMOL 2/WK STARTING 1 WK AFTER CARCINOGEN TREATMENT AND CONTINUING FOR 12 WK (STUDY DURATION: 13 WK), Route [Inhibitor]: DERMAL, Species: MOUSE, Strain/Sex: CD-1/FEMALE, Target Tissue: Type of Lesion: SKIN: PAPILLOMA, Dose [Carcinogen]: 20 NMOL ONCE, Promoter: 12-O-TETRADECANOYLPHORBOL-13-ACETATE, 16561-29-8) was 83%, 43%, 48%, p<0.05 and 96%, 59%, 39%, p<0.05 and the “tumour outcome (control, treated, inhibition, significance)” value (Carcinogen: 7,12-DIMETHYLBENZ[A]ANTHRACENE, 57-97-6, Dose [Inhibitor]: 0.5 NMOL 2/WK STARTING 1 WK AFTER CARCINOGEN TREATMENT AND CONTINUING FOR 15 WK (STUDY DURATION: 16 WK), Route [Inhibitor]: DERMAL, Species: MOUSE, Strain/Sex: CD-1/FEMALE, Target Tissue: Type of Lesion: SKIN: PAPILLOMA, Dose [Carcinogen]: 20 NMOL ONCE, Promoter: 12-O-TETRADECANOYLPHORBOL-13-ACETATE, 16561-29-8) was 88%, 59%, 33%, p<0.05 and 92%, 77%, 16%, not significant. The “tumour outcome (control, treated, inhibition, significance)” value (Carcinogen: 7,12-DIMETHYLBENZ[A]ANTHRACENE, 57-97-6, Dose [Inhibitor]: 2 NMOL 2/WK STARTING 1 WK AFTER CARCINOGEN TREATMENT AND CONTINUING FOR 9 WK (STUDY DURATION: 10 WK), Route [Inhibitor]: DERMAL, Species: MOUSE, Strain/Sex: CD-1/FEMALE, Target Tissue: Type of Lesion: SKIN: PAPILLOMA, Dose [Carcinogen]: 20 NMOL ONCE, Promoter: 12-O-TETRADECANOYLPHORBOL-13-ACETATE, 16561-29-8) was 47%, 4%, 91%, p<0.05, the “tumour outcome (control, treated, inhibition, significance)” value (Carcinogen: 7,12-DIMETHYLBENZ[A]ANTHRACENE, 57-97-6, Dose [Inhibitor]: 2 NMOL 2/WK STARTING 1 WK AFTER CARCINOGEN TREATMENT AND CONTINUING FOR 12 WK (STUDY DURATION: 13 WK), Route [Inhibitor]: DERMAL, Species: MOUSE, Strain/Sex: CD-1/FEMALE, Target Tissue: Type of Lesion: SKIN: PAPILLOMA, Dose [Carcinogen]: 20 NMOL ONCE, Promoter: 12-O-TETRADECANOYLPHORBOL-13-ACETATE, 16561-29-8) was 83%, 12%, 86%, p<0.05 and the “tumour outcome (control, treated, inhibition, significance)” value (Carcinogen: 7,12-DIMETHYLBENZ[A]ANTHRACENE, 57-97-6, Dose [Inhibitor]: 2 NMOL 2/WK STARTING 1 WK AFTER CARCINOGEN TREATMENT AND CONTINUING FOR 15 WK (STUDY DURATION: 16 WK), Route [Inhibitor]: DERMAL, Species: MOUSE, Strain/Sex: CD-1/FEMALE, Target Tissue: Type of Lesion: SKIN: PAPILLOMA, Dose [Carcinogen]: 20 NMOL ONCE, Promoter: 12-O-TETRADECANOYLPHORBOL-13-ACETATE, 16561-29-8) was 88%, 18%, 80%, p<0.05. For the same compound, the “tumour outcome (control, treated, inhibition, significance)” value (Carcinogen: N-METHYL-N-NITROSOUREA [684-93-5], Dose [Inhibitor]: 0, 0.8 ML OF 10 µM ETHANOL SOLUTION ADMINISTERED IN NORMAL SALINE VIA CATHETER 1X/WK FOR 7 WK BEGINNING 3 WK POST CARCIN, Route [Inhibitor]: INTRAVESICAL, Species: RAT, Strain/Sex: F344/FEMALE, Target Tissue: Type of Lesion: URINARY BLADDER: TUMOR, Dose [Carcinogen]: ONCE/2 WK FOR 6 WK (STUDY DURATION: 31 WK; DOSE NOT REPORTED), Promoter: NONE) was 6/9 (67%), 5/9 (56%), 16%, not significant.

For `OC1C(O)C(O)C(O)C(O)C1O` (stereo not drawn), the “tumour outcome (control, treated, inhibition, significance)” value (Carcinogen: 7,12-DIMETHYLBENZ[A]ANTHRACENE, 57-97-6, Dose [Inhibitor]: 0, 15 MILLIMOLAR IN DRINKING WATER FOR 47 WK BEGINNING 2 WK PRIOR TO CARCINOGEN DOSE (STUDY DURATION: 47 WK), Route [Inhibitor]: ORAL, Species: RAT, Strain/Sex: SPRAGUE-DAWLEY/FEMALE, Target Tissue: Type of Lesion: MAMMARY GLAND: TUMOR, Dose [Carcinogen]: 5 MG IN 1 ML CORN OIL ONCE, Promoter: NONE USED) is listed as 37/40 (93%), 30/40 (75%), 19%, p<0.05.

In the case of `CCCCC(O)CCC(=O)c1ccccc1` (stereo not drawn), the “tumour outcome (control, treated, inhibition, significance)” value (Carcinogen: 4-(METHYLNITROSAMINO)-1-(3-PYRIDYL)-1-BUTANONE, 64091-91-4, Dose [Inhibitor]: 0, 25 UMOL IN 0.1 ML CORN OIL ONCE 2 HR PRIOR TO CARCINOGEN DOSE (STUDY DURATION: 16 WK), Route [Inhibitor]: GAVAGE, Species: MOUSE, Strain/Sex: STRAIN-A/FEMALE, Target Tissue: Type of Lesion: LUNG: TUMOR, Dose [Carcinogen]: 10 UMOL IN 0.1 ML SALINE ONCE, Promoter: NONE USED) is listed as 100%, 100%, 0%, not significant.

For `CCCCCCCCCc1ccc(O)cc1`, the “tumour outcome (control, treated, inhibition, significance)” value (Carcinogen: 7,12-DIMETHYLBENZ[A]ANTHRACENE, 57-97-6, Dose [Inhibitor]: 0, 25 PPM IN DIET FOR 50 WK BEGINNING 1 WK POST-CARCINOGEN DOSE (STUDY DURATION: 51 WK), Route [Inhibitor]: ORAL, Species: RAT, Strain/Sex: SPRAGUE-DAWLEY/FEMALE, Target Tissue: Type of Lesion: OVARY: ADENOCARCINOMA, Dose [Carcinogen]: 0.01 ML OF 0.5% DMBA IN OLIVE OIL INTO THE LEFT OVARY, ONCE, UNDER PENTOBARBITAL ANESTHESIA, Promoter: NONE USED) is given as 7/20 (35%), 1/20 (5%), 86%, p=0.02 and the “tumour outcome (control, treated, inhibition, significance)” value (Carcinogen: 7,12-DIMETHYLBENZ[A]ANTHRACENE, 57-97-6, Dose [Inhibitor]: 0, 250 PPM IN DIET FOR 50 WK BEGINNING 1 WK POST-CARCINOGEN DOSE (STUDY DURATION: 51 WK), Route [Inhibitor]: ORAL, Species: RAT, Strain/Sex: SPRAGUE-DAWLEY/FEMALE, Target Tissue: Type of Lesion: OVARY: ADENOCARCINOMA, Dose [Carcinogen]: 0.01 ML OF 0.5% DMBA IN OLIVE OIL INTO THE LEFT OVARY, ONCE, UNDER PENTOBARBITAL ANESTHESIA, Promoter: NONE USED) is given as 7/20 (35%), 1/20 (5%), 86%, p=0.02.

In the case of `CCCCC/C=C\C/C=C\CCCCCCCC(=O)O`, the “tumour outcome (control, treated, inhibition, significance)” value (Carcinogen: BENZO[A]PYRENE, 50-32-8, Dose [Inhibitor]: 0, 0.1 ML IN 0.1 ML OLIVE OIL 4 AND 2 D PRIOR TO CARCINOGEN DOSE (CYCLE REPEATED 4 X) (STUDY DURATION: 23 WK), Route [Inhibitor]: GAVAGE, Species: MOUSE, Strain/Sex: ICR/FEMALE, Target Tissue: Type of Lesion: STOMACH: PAPILLOMA, Dose [Carcinogen]: 2 MG IN 0.2 ML OLIVE OIL 1/WK FOR 4 WK) is listed as 100%, 90%, 10%, not calculated.

In the case of `Cn1c(=O)[nH]c(=O)c2[nH]cnc21`, the “tumour outcome (control, treated, inhibition, significance)” value (Carcinogen: URETHANE, 51-79-6, Dose [Inhibitor]: 0.05 UMOL/G BW GIVEN AT 6 HR INTERVALS DURING THE PERIOD OF 0 TO 36 HR AFTER CARCINOGEN TREATMENT FOLLOWED BY 5 MO OBSER, Route [Inhibitor]: INTRAPERITONEAL, Species: MOUSE, Strain/Sex: ICR/FEMALE, Target Tissue: Type of Lesion: LUNG: PAPILLARY ADENOMA, Dose [Carcinogen]: 0.1 MG/G BW ONCE, Promoter: NONE USED) is given as 31/59 (53%), 26/44 (59%), -11%, not significant and the “tumour outcome (control, treated, inhibition, significance)” value (Carcinogen: URETHANE, 51-79-6, Dose [Inhibitor]: 0.25 UMOL/G BW 1/D DURING THE PERIOD OF 5 TO 9 D AFTER CARCINOGEN TREATMENT FOLLOWED BY OBSERVATION PERIOD UNTIL END OF, Route [Inhibitor]: INTRAPERITONEAL, Species: MOUSE, Strain/Sex: ICR/FEMALE, Target Tissue: Type of Lesion: LUNG: PAPILLARY ADENOMA, Dose [Carcinogen]: 1 MG/G BW ONCE, Promoter: NONE USED) is given as 49/53 (93%), 50/53 (94%), -1%, not significant.

For `CCCCCCCCCCCC(=O)OCC(COC(=O)CCCCCCCCCCC)OC(=O)CCCCCCCCCCC`, the “tumour outcome (control, treated, inhibition, significance)” value (Carcinogen: DIMETHYLBENZANTHRACENE, 57-97-6, Dose [Inhibitor]: APPLIED 3 MIN POST EACH PROMOTER DOSE 3/WK FOR 20 WK BEGINNING 3 D POST CARCINOGEN DOSE (STUDY DURATION: 20 WK), Route [Inhibitor]: DERMAL, Species: MOUSE, Strain/Sex: SWISS/?, Target Tissue: Type of Lesion: SKIN: TUMOR, Dose [Carcinogen]: 250 UG/0.25 ML ONCE, Promoter: CROTON OIL, 8001-28-3) is given as 100%, 0%, 100%, not calculated.
